{"source": "patent US4175123A", "about": "“Amino-sugar derivatives, process for their preparation and pharmaceutical composition thereof” (Bayer Aktiengesellschaft, priority 1976, dated 1979)", "key": {"glucosidase [1]": {"test_system": "glucosidase", "assay": "Sucrose feeding test: postprandial blood sugar after oral sucrose + glucosidase inhibitor in fasting rats", "type": "in vivo, rat", "method": "(§1) The in vivo activity of the compound was tested on some examples using the experimental arrangement described in the following text.\n(§2) Oral administration of starch or sucrose causes a rise in the blood sugar in warm-blooded animals, provided that the carbohydrates are enzymatically degraded in the small intestine to monosaccharides. The inhibition of their enzymatic hydrolysis by glucosidase inhibitors causes a reduced rise in the blood sugar.\n(§3) In order to detect the action of glucosidase inhibitors, 6 fasting rats receive perorally, 1 g of broiled starch or 2.5 g of sucrose/kg in the form of an aqueous suspension or in the form of an aqueous solution (starch and sucrose control respectively). An equal number of rats receive the glucosidase inhibitor in the dose indicated, together with the same amount of the carbohydrate concerned. An equal volume of physiological sodium chloride solution is administered orally to a further six rats (control). After administration of the carbohydrate concerned±glucosidae inhibitor, the postprandial change in blood sugar is measured, at the times indicated, in blood from the postorbital venous plexus in an auto-analyser according to the method of W. S. Hoffmann [J biol. Chem 120, 51 (1937)]."}, "glucosidase [2]": {"test_system": "glucosidase", "assay": "Starch feeding test: postprandial blood sugar after oral starch + glucosidase inhibitor in fasting rats", "type": "in vivo, rat", "conditions": "for Blood sugar ± standard deviation, 15 minutes: starch control 131 ± 7.2, fasting control 60 ± 4.2; for Blood sugar ± standard deviation, 30 minutes: starch control 113 ± 9.2, fasting control 62 ± 3.4", "method": "as §1, §2, §3"}, "[3]": {"test_system": "small intestine of fasting male Wistar rats (glucose absorption)", "assay": "In vitro method for the inhibition of glucose absorption (small intestine rings, D-glucose-14C)", "parameters": "species or system rat (male Wistar)", "conditions": "Rattus norvegicus, 2 min; 10 mg/ml; 2 minutes at 37° C., pH 7.4, D-glucose-14C 10 mg/ml", "method": "In vitro method for the inhibition of glucose absorption\nThe upper part of the small intestine of fasting male Wistar rats is folded over and cut into rings about 3 mm wide. 10 of these rings (~150 mg moist weight) are incubated for 2 minutes at 37° C. in 5 ml of Krebs-Ringer bicarbonate buffer (pH 7.4) with D-glucose-^14 C (U) (10 mg/ml, 0.2 μCi/ml), with the addition of the active compounds. The washed and dried-off intestine rings are weighted, dissolved in 5 ml of Digestin (Merck)/isopropanol (1:1) and the radioactivity absorbed in the tissue is determined in a liquid scintillation counter. All values are corrected using the radioactivity absorbed in the tissue as D-mannitol-1-^14 C.\nIn vitro inhibitions of the glucose absorption by some selected compounds (10 mg/ml): […]"}, "[4]": {"biological_target": "T1, intestinal disaccharidase complex (saccharase) (Sus scrofa, UniProt P56729)", "T1 construct": "both subunits cut from one SI precursor", "T1 sequence (P56729 with tags, fused parts or gaps)": "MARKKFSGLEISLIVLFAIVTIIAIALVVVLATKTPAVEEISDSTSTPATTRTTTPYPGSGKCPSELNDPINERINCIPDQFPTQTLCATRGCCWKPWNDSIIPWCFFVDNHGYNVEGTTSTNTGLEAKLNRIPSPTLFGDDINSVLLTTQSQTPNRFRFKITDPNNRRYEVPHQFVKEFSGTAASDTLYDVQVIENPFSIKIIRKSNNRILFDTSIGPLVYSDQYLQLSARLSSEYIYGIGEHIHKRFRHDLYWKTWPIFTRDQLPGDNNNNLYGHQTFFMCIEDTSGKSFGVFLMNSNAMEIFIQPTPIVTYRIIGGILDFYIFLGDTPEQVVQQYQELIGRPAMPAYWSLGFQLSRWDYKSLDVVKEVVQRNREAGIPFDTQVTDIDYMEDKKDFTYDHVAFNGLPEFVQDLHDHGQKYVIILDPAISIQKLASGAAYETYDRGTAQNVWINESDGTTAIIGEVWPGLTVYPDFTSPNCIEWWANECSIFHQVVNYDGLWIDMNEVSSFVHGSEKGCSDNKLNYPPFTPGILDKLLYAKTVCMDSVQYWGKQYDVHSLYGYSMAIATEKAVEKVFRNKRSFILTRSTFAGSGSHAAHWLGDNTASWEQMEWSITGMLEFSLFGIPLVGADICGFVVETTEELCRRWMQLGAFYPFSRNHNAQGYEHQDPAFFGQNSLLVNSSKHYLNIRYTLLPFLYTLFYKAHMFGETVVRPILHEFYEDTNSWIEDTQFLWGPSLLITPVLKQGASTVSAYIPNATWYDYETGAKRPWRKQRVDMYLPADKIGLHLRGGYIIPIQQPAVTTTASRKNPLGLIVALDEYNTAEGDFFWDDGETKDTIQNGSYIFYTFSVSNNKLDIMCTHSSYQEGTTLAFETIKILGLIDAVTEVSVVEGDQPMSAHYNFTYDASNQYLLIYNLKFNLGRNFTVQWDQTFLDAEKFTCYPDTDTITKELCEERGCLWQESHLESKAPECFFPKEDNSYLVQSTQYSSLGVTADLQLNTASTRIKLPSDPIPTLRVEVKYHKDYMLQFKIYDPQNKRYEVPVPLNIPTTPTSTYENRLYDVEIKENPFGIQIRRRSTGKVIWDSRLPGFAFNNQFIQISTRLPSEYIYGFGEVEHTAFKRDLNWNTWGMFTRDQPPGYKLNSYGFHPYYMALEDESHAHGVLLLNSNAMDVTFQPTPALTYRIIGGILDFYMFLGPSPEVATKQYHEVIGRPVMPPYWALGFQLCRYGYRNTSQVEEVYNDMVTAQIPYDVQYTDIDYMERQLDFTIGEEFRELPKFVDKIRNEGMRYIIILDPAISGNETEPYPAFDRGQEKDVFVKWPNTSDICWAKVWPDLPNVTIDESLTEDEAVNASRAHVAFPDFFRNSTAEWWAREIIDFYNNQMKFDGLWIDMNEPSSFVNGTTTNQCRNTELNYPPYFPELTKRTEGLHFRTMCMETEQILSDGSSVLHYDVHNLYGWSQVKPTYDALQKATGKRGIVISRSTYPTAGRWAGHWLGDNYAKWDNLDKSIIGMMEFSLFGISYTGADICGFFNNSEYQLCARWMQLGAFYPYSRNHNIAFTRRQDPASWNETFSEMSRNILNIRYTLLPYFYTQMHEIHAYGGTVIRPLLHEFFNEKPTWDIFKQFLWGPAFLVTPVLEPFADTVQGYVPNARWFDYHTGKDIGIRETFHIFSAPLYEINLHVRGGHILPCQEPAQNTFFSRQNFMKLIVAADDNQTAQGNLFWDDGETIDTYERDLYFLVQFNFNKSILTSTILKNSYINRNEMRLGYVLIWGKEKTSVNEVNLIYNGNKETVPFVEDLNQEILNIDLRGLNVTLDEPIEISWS", "assay": "In vitro saccharase inhibition test", "type": "biochemical, pig", "conditions": "for specific inhibitory activity (saccharase inhibitor units per gram): pH 6.25, 37° C., 20 minutes, sucrose substrate", "text": "In vitro saccharase inhibition test\nThe in vitro saccharase inhibition test makes it possible to determined the enzyme inhibitory activity of a sample by comparing the activity of the solubilised intestinal disaccharidase complex in the presence of the inhibitor with its activity in the absence (so-called 100% value) of the inhibitor. A virtually glucose-free (<100 ppm) saccharose is used here as the substrate, which determines the specificity of the inhibition test; the enzyme activity determination is based on the colorometric determination of liberated glucose by means of glucoseoxydase, peroxydase and 2,2-azino-di-[3-ethyl-benzthiazoline-6-sulphonate] (=ABTS) as the chromogen.\nA saccharase inhibitor unit (SIU) is defined as that inhibitory activity which reduces a given saccharolytic activity in a defined test batch by one unit (saccharase unit=SU); the saccharase unit is defined here as that enzyme activity which, under given conditions, in one minute splits 1 μmol of sucrose and thus leads to the liberation of 1 μmol each of glucose, which is determine in the test, and fructose, which is not detected in the test.\nThe intestinal disaccharidase complex is obtained from pig's small intestine mucosa by trypsin digestion, precipitation from 66% ethanol at -20° C., taking up of the precipitate in 100 mM phosphate buffer of pH 7.0 and concluding dialysis against the same buffer.\n100 μl of a dilution of the intestinal disaccharidase complex in 0.1 M maleate buffer of pH 6.25 are added to 10 μl of a sample solution which is diluted so that the extinction of the test batch is at least 10%, but not more than 25%, below that of the 100% value, and the mixture is pre-incubated for 10 minutes at 37° C. The dilution of the disaccharidase complex is to be adjusted to an activity of 0.05 SU/ml. […] In order to develop the colour, the mixture is incubated for 30 minutes at 37° C., after which it is diluted with 2 ml of tris buffer and measured photometrically at 420 nm against a reagent blank (with enzyme but without sucrose). […]"}, "[5]": {"conditions": "0.92 mg/kg perorally + 1 g starch/kg"}, "[6]": {"conditions": "0.65 mg/kg perorally + 1 g starch/kg"}}}
{"smiles": "C[C@H]1O[C@H](O[C@H]2[C@H](O)[C@@H](O)[C@@H](O[C@H]3[C@H](O)[C@@H](O)[C@H](Oc4ccc(C(=O)O)cc4)O[C@@H]3CO)O[C@@H]2CO)[C@H](O)[C@@H](O)[C@@H]1N[C@H]1C=C(CO)[C@@H](O)[C@H](O)[C@H]1O", "note": "[Example 1, 7, p-Carboxyphenyl-O-{C}-(1→4)-O-α-D-glcp-(1→4)-β-D- glucopyranoside]", "values": [{"measurement": "Blood sugar ± standard deviation, 15 minutes", "setting": "glucosidase [1]; 0.92 mg/kg perorally + 2.5 g sucrose/kg, sucrose control 128 ± 8.0, fasting control 60 ± 4.6", "result": "110 ± 3.4", "unit": "mg/dL"}, {"measurement": "Blood sugar ± standard deviation, 30 minutes", "setting": "glucosidase [1]; 0.92 mg/kg perorally + 2.5 g sucrose/kg, sucrose control 133 ± 8.7, fasting control 64 ± 3.7", "result": "118 ± 14", "unit": "mg/dL"}, {"measurement": "Blood sugar ± standard deviation, 45 minutes", "setting": "glucosidase [1]; 0.92 mg/kg perorally + 2.5 g sucrose/kg, sucrose control 134 ± 6.1, fasting control 73 ± 7.1", "result": "112 ± 10", "unit": "mg/dL"}, {"measurement": "Blood sugar ± standard deviation, 60 minutes", "setting": "glucosidase [1]; 0.92 mg/kg perorally + 2.5 g sucrose/kg, sucrose control 119 ± 10, fasting control 66 ± 4.2", "result": "117 ± 9.0", "unit": "mg/dL"}, {"measurement": "Blood sugar ± standard deviation, 15 minutes", "setting": "glucosidase [2]; [5]", "result": "121 ± 7.7", "unit": "mg/dL"}, {"measurement": "Blood sugar ± standard deviation, 30 minutes", "setting": "glucosidase [2]; [5]", "result": "112 ± 4.3", "unit": "mg/dL"}, {"measurement": "inhibition at 10000 µg/mL", "setting": "[3]", "result": "25 to 50", "unit": "%"}]}
{"smiles": "C[C@H]1O[C@H](O[C@H]2[C@H](O)[C@@H](O)[C@@H](O[C@H]3[C@H](O)[C@@H](O)[C@@H](O[C@H]4[C@H](O)[C@@H](O)C(O)O[C@@H]4CO)O[C@@H]3CO)O[C@@H]2CO)[C@H](O)[C@@H](O)[C@@H]1N[C@H]1C=C(CO)[C@@H](O)[C@H](O)[C@H]1O", "note": "(stereo partly drawn) [isomers with p=0 and q=3]", "values": [{"measurement": "in vitro sucrose inhibitory activity", "setting": "[4]; isolated isomer", "result": "19,000 SIU/g"}]}
{"smiles": "C[C@H]1O[C@H](O[C@H]2[C@H](O)[C@@H](O)[C@@H](O[C@H]3[C@H](O)[C@@H](O)C(O)O[C@@H]3CO)O[C@@H]2CO)[C@H](O)[C@@H](O)[C@@H]1N[C@H]1C=C(CO)[C@@H](O)[C@H](O)[C@H]1O", "note": "(stereo partly drawn) [compound with P+q=2]", "values": [{"measurement": "specific inhibitory activity (saccharase inhibitor units per gram)", "setting": "[4]", "result": "65,000 SIU/g"}]}
{"smiles": "C[C@H]1O[C@H](O[C@H]2[C@H](O)[C@@H](O)[C@@H](O[C@H]3[C@H](O)[C@@H](O)[C@H](Oc4ccc(C(C)(C)C)cc4)O[C@@H]3CO)O[C@@H]2CO)[C@H](O)[C@@H](O)[C@@H]1N[C@H]1C=C(CO)[C@@H](O)[C@H](O)[C@H]1O", "note": "[Example 1, 9, p-tert-Butylphenyl-O-{C}-(1→4)-O-α-D-glcp-(1→4)-β-D glucopyranoside]", "values": [{"measurement": "Blood sugar ± standard deviation, 15 minutes", "setting": "glucosidase [1]; 3.0 mg/kg perorally + 2.5 g sucrose/kg, sucrose control 134 ± 13, fasting control 71 ± 3.7", "result": "85 ± 4.8", "unit": "mg/dL"}, {"measurement": "Blood sugar ± standard deviation, 30 minutes", "setting": "glucosidase [1]; 3.0 mg/kg perorally + 2.5 g sucrose/kg, sucrose control 116 ± 20, fasting control 70 ± 5.3", "result": "83 ± 7.9", "unit": "mg/dL"}, {"measurement": "Blood sugar ± standard deviation, 45 minutes", "setting": "glucosidase [1]; 3.0 mg/kg perorally + 2.5 g sucrose/kg, sucrose control 125 ± 8.6, fasting control 77 ± 5.5", "result": "88 ± 3.4", "unit": "mg/dL"}, {"measurement": "Blood sugar ± standard deviation, 60 minutes", "setting": "glucosidase [1]; 3.0 mg/kg perorally + 2.5 g sucrose/kg, sucrose control 112 ± 15, fasting control 78 ± 7.3", "result": "92 ± 9.4", "unit": "mg/dL"}, {"measurement": "inhibition at 10000 µg/mL", "setting": "[3]", "result": "> 50", "unit": "%"}]}
{"smiles": "C[C@H]1O[C@H](O[C@H]2[C@H](O)[C@@H](O)[C@@H](O[C@H]3[C@H](O)[C@@H](O)C(O)O[C@@H]3CO)O[C@@H]2CO)[C@H](O)[C@@H](O)[C@@H]1N[C@H]1C=C(CO)[C@@H](O)[C@H](O)[C@H]1O", "note": "(stereo partly drawn) [compound of the formula I (page 2) with m=0 and n=2]", "values": [{"measurement": "specific inhibitory activity (saccharase inhibitor units per gram)", "setting": "[4]", "result": "68,000 SIU/g"}]}
{"smiles": "C[C@H]1O[C@H](O[C@H]2[C@H](O)[C@@H](O)[C@@H](O[C@H]3[C@H](O)[C@@H](O)[C@H](Oc4ccc(O)cc4)O[C@@H]3CO)O[C@@H]2CO)[C@H](O)[C@@H](O)[C@@H]1N[C@H]1C=C(CO)[C@@H](O)[C@H](O)[C@H]1O", "note": "[Example 1, 8, p-Hydroxyphenyl-O-{C}-(1→4)-O-α-D-glcp-(1→4)-β-D- glucopyranoside]", "values": [{"measurement": "Blood sugar ± standard deviation, 15 minutes", "setting": "glucosidase [1]; 0.65 mg/kg perorally + 2.5 g sucrose/kg, sucrose control 128 ± 8.0, fasting control 60 ± 4.6", "result": "112 ± 3.1", "unit": "mg/dL"}, {"measurement": "Blood sugar ± standard deviation, 30 minutes", "setting": "glucosidase [1]; 0.65 mg/kg perorally + 2.5 g sucrose/kg, sucrose control 133 ± 8.7, fasting control 64 ± 3.7", "result": "114 ± 6.3", "unit": "mg/dL"}, {"measurement": "Blood sugar ± standard deviation, 45 minutes", "setting": "glucosidase [1]; 0.65 mg/kg perorally + 2.5 g sucrose/kg, sucrose control 134 ± 6.1, fasting control 73 ± 7.1", "result": "119 ± 9.4", "unit": "mg/dL"}, {"measurement": "Blood sugar ± standard deviation, 60 minutes", "setting": "glucosidase [1]; 0.65 mg/kg perorally + 2.5 g sucrose/kg, sucrose control 119 ± 10, fasting control 66 ± 4.2", "result": "112 ± 4.3", "unit": "mg/dL"}, {"measurement": "Blood sugar ± standard deviation, 15 minutes", "setting": "glucosidase [2]; [6]", "result": "112 ± 9.9", "unit": "mg/dL"}, {"measurement": "Blood sugar ± standard deviation, 30 minutes", "setting": "glucosidase [2]; [6]", "result": "109 ± 12", "unit": "mg/dL"}, {"measurement": "inhibition at 10000 µg/mL", "setting": "[3]", "result": "25 to 50", "unit": "%"}]}
{"smiles": "C[C@H]1O[C@H](O[C@H]2[C@H](O)[C@@H](O)[C@@H](O[C@H]3[C@H](O)[C@@H](O)[C@H](Oc4cccc(C(=O)O)c4)O[C@@H]3CO)O[C@@H]2CO)[C@H](O)[C@@H](O)[C@@H]1N[C@H]1C=C(CO)[C@@H](O)[C@H](O)[C@H]1O", "note": "[Example 1, 5, m-Carboxyphenyl-O-{C}-(1→4)-O-α-D-glcp-(1→4)-β-D- glucopyranoside]", "values": [{"measurement": "inhibition at 10000 µg/mL", "setting": "[3]", "result": "> 50", "unit": "%"}]}
{"smiles": "CCCCCCCCCCCCCCCCO[C@@H]1O[C@H](CO)[C@@H](O[C@H]2O[C@H](CO)[C@@H](O[C@H]3O[C@H](C)[C@@H](N[C@H]4C=C(CO)[C@@H](O)[C@H](O)[C@H]4O)[C@H](O)[C@H]3O)[C@H](O)[C@H]2O)[C@H](O)[C@H]1O", "note": "[Example 4, 18, n-Hexadecyl-O-{C}-(1→4)-O-α-D-glcp-(1→4)-β-D-glucopyranoside]", "values": [{"measurement": "inhibition at 10000 µg/mL", "setting": "[3]", "result": "> 50", "unit": "%"}]}
